Results: patent US11065257B2, “Substituted pyrazoloazepin-4-ones and their use as phosphodiesterase inhibitors” (LEO Pharma A/S, priority 2016, dated 2021)

What follows are molecules tested against T1, human PDE4D catalytic domain (Homo sapiens, UniProt Q08499) (assay: PDE4 Assay). Settings: human PDE4D catalytic domain (S380-L740), TR-FRET with FAM-cAMP; expressed as a range of IC50; read-out: PDE4 Potency Range.
T1 construct: UniProt no; Q08499 [S380-L740]
Type: biochemical
In short: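 Catalytic domain (S380-L740) was incubated with unlabelled cAMP plus FAM-cAMP and titrated compound, then stopped with Tb-donor nanoparticles binding AMP phospho groups. Generated AMP was read by time-resolved FRET; IC50 was reported as 50% inhibition of substrate cleavage relative to controls, expressed as nM ranges.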

T1 sequence (Q08499 380-740): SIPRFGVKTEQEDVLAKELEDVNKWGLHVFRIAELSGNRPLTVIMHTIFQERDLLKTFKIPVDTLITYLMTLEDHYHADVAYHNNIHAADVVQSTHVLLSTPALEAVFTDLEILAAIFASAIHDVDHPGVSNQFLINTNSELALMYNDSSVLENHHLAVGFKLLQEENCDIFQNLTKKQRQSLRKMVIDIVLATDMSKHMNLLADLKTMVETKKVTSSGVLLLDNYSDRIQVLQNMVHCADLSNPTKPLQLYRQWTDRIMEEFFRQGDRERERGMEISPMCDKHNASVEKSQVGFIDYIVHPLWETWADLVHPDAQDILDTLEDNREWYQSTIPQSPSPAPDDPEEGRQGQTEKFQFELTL

`CCc1nn(CCOC(=O)c2cc(C)ns2)c2c1C(=O)NCC1(CCOCC1)C2` [Example 13, 2-(3-ethyl-4-oxo-spiro[6,8-dihydro-5H-pyrazolo[4,3-c]azepine-7,4′-tetrahydropyran]-1-yl)ethyl 3-methylisothiazole-5-carboxylate] and `CCc1nn(CCCOC(=O)c2cnc(C)s2)c2c1C(=O)NCC1(CCOCC1)C2` [Example 82, 3-(3-ethyl-4-oxo-spiro[6,8-dihydro-5H-pyrazolo[4,3-c]azepine-7,4′-tetrahydropyran]-1-yl)propyl 2-methylthiazole-5-carboxylate] fall in the same range of IC50: 100 to 500 nM for the first, 100 to 500 nM for the second.

First: CCc1nn(CCCOC(=O)c2nc[nH]n2)c2c1C(=O)NCC1(CCOCC1)C2 [Example 26, 3-(3-ethyl-4-oxo-spiro[6,8-dihydro-5H-pyrazolo[4,3-c]azepine-7,4′-tetrahydropyran]-1-yl)propyl 1H-1,2,4-triazole-3-carboxylate]
Second: CCc1nn(CCCOC(=O)c2cc[nH]n2)c2c1C(=O)NCC1(CCOCC1)C2 [Example 18, 3-(3-ethyl-4-oxo-spiro[6,8-dihydro-5H-pyrazolo[4,3-c]azepine-7,4′-tetrahydropyran]-1-yl)propyl 1H-pyrazole-3-carboxylate]
The IC50 of the first is higher: > 500 nM for the first, 100 to 500 nM for the second.

First: CCc1nn(CCCOC(=O)c2cocn2)c2c1C(=O)NCC1(CCOCC1)C2 [Example 23, 3-(3-ethyl-4-oxo-spiro[6,8-dihydro-5H-pyrazolo[4,3-c]azepine-7,4′-tetrahydropyran]-1-yl)propyl oxazole-4-carboxylate]
Second: CCc1nn(CCCOC(=O)c2conc2C)c2c1C(=O)NCC1(CCOCC1)C2 [Example 45, 3-(3-ethyl-4-oxo-spiro[6,8-dihydro-5H-pyrazolo[4,3-c]azepine-7,4′-tetrahydropyran]-1-yl)propyl 3-methylisoxazole-4-carboxylate]
The IC50 of the first is higher: > 500 nM for the first, 100 to 500 nM for the second. The second is the more potent here.

`CCc1nn(CCCOC(=O)c2cncs2)c2c1C(=O)NCC1(CCOCC1)C2` [Example 56, 3-(3-ethyl-4-oxo-spiro[6,8-dihydro-5H-pyrazolo[4,3-c]azepine-7,4′-tetrahydropyran]-1-yl)propyl thiazole-5-carboxylate] and `CCc1nn(CCCOC(=O)c2cncn2C)c2c1C(=O)NCC1(CCOCC1)C2` [Example 41, 3-(3-ethyl-4-oxo-spiro[6,8-dihydro-5H-pyrazolo[4,3-c]azepine-7,4′-tetrahydropyran]-1-yl)propyl 3-methylimidazole-4-carboxylate] fall in the same range of IC50: 100 to 500 nM for the first, 100 to 500 nM for the second.

`CCc1nn(CCCOC(=O)C2CCS(=O)(=O)C2)c2c1C(=O)NCC1(CCOCC1)C2` (stereo not shown) [Example 96, 3-(3-ethyl-4-oxo-spiro[6,8-dihydro-5H-pyrazolo[4,3-c]azepine-7,4′-tetrahydropyran]-1-yl)propyl 1,1-dioxothiolane-3-carboxylate] and `CCc1nn(CCCOC(=O)C2CCS(=O)(=O)CC2)c2c1C(=O)NCC1(CCOCC1)C2` [Example 103, 3-(3-ethyl-4-oxo-spiro[6,8-dihydro-5H-pyrazolo[4,3-c]azepine-7,4′-tetrahydropyran]-1-yl)propyl 1,1-dioxothiane-4-carboxylate] cannot be ordered by IC50: > 500 nM for the first, > 500 nM for the second.

Compared with `CCc1nn(CC(C)(C)COC(=O)C2CCOC2)c2c1C(=O)NCC1(CCOCC1)C2` (stereo not shown) [Example 110, [3-(3-ethyl-4-oxo-spiro[6,8-dihydro-5H-pyrazolo[4,3-c]azepine-7,4′-tetrahydropyran]-1-yl)-2,2-dimethyl-propyl] tetrahydrofuran-3-carboxylate], `CCc1nn(CCOC(=O)C2CCN(C(C)=O)CC2)c2c1C(=O)NCC1(CCOCC1)C2` [Example 16, 2-(3-ethyl-4-oxo-spiro[6,8-dihydro-5H-pyrazolo[4,3-c]azepine-7,4′-tetrahydropyran]-1-yl)ethyl 1-acetylpiperidine-4-carboxylate] is higher in IC50: 100 to 500 nM for the first, > 500 nM for the second.

Work on `CCc1nn(CCCOC(=O)c2sc(C)nc2C)c2c1C(=O)NCC1(CCOCC1)C2` [Example 95, 3-(3-ethyl-4-oxo-spiro[6,8-dihydro-5H-pyrazolo[4,3-c]azepine-7,4′-tetrahydropyran]-1-yl)propyl 2,4-dimethylthiazole-5-carboxylate] yielded an IC50 of 100 to 500 nM.
